Assay results: the supplement of paper PMC10307832

Experiments:
Assay in all cases: relative viability (nuclei count vs DMSO), 5 days (fraction); higher = more cells survive
[1] = compound: Cc1ccc2nc(NCCN)c3ncc(C)n3c2c1 + C[C@]1(O)C[C@@H](c2nc(-c3ccc4ccc(-c5ccccc5)nc4c3)c3c(N)nccn32)C1 [Linsitinib] (partner 1 µM)
Method in brief: (§1)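 The day after seeding in 1536-well plates, lung cancer cell lines were treated by pin tool with a single drug, or with a fixed anchor-drug dose together with five library-drug doses (not always all listed) in √10 steps. After 5 days, a combined fix-and-stain solution (final 0.05% Triton X-100, 1% formaldehyde, 1 ug/ml Hoechst) was added. Nuclei counted on 4× images gave relative viability as treated counts over vehicle counts, reported as the median of duplicate plates.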

[2] = compound: Cc1ccc2nc(NCCN)c3ncc(C)n3c2c1 + Cc1nc(Nc2ncc(C(=O)Nc3c(C)cccc3Cl)s2)cc(N2CCN(CCO)CC2)n1 [Dasatinib] (partner 0.075 µM)
Method in brief: as §1

[3] = compound: Cc1ccc2nc(NCCN)c3ncc(C)n3c2c1 + Nc1nc2[nH]cc(CCc3ccc(C(=O)N[C@@H](CCC(=O)O)C(=O)O)cc3)c2c(=O)[nH]1 [Pemetrexed] (partner 0.2 µM)
Method in brief: as §1

Salubrinal + Lapatinib = compound: O=C(/C=C/c1ccccc1)NC(NC(=S)Nc1cccc2cccnc12)C(Cl)(Cl)Cl [Salubrinal] + CS(=O)(=O)CCNCc1ccc(-c2ccc3ncnc(Nc4ccc(OCc5cccc(F)c5)c(Cl)c4)c3c2)o1 [Lapatinib] (partner 2 µM)
Method in brief: as §1

Row | Cell Line | relative viability ([1]; first compound 0.04 µM) | relative viability ([1]; first compound 0.1265 µM) | relative viability ([1]; first compound 0.4 µM) | relative viability ([1]; first compound 1.265 µM) | relative viability ([1]; first compound 4 µM) | relative viability ([2]; first compound 0.04 µM) | relative viability ([2]; first compound 0.1265 µM) | relative viability ([2]; first compound 0.4 µM) | relative viability ([2]; first compound 1.265 µM) | relative viability ([2]; first compound 4 µM) | relative viability ([3]; first compound 0.04 µM) | relative viability ([3]; first compound 0.1265 µM) | relative viability ([3]; first compound 0.4 µM) | relative viability ([3]; first compound 1.265 µM) | relative viability ([3]; first compound 4 µM) | relative viability (Salubrinal + Lapatinib; first compound 0.08 µM) | relative viability (Salubrinal + Lapatinib; first compound 0.253 µM) | relative viability (Salubrinal + Lapatinib; first compound 0.8 µM) | relative viability (Salubrinal + Lapatinib; first compound 2.53 µM) | relative viability (Salubrinal + Lapatinib; first compound 8 µM)
1 | 201T | 1 | 1.09 | 1.04 | 0.98 | 0.992 | 0.56 | 0.501 | 0.587 | 0.524 | 0.483 | 0.372 | 0.321 | 0.323 | 0.276 | 0.343 | 1.03 | 1.06 | 1.06 | 1.07 | 1.06
2 | A549 | 0.791 | 0.557 | 0.598 | 0.423 | 0.534 | – | – | – | – | – | – | – | – | – | – | 1.08 | 0.954 | 1.03 | 0.939 | 0.886
3 | A-427 | 0.922 | 1.01 | 1.08 | 1.09 | 1.19 | 0.682 | 0.654 | 0.644 | 0.632 | 0.628 | 0.979 | 0.939 | 1.02 | 0.95 | 0.948 | 1.09 | 0.966 | 1.11 | 0.961 | 1.03
4 | ABC-1 | 0.95 | 0.806 | 0.812 | 0.818 | 0.594 | 0.613 | 0.573 | 0.501 | 0.57 | 0.594 | – | – | – | – | – | 1.46 | 1.35 | 1.17 | 1.25 | 1.15
5 | BEN | 0.916 | 0.785 | 1.03 | 0.795 | 0.914 | 0.329 | 0.291 | 0.27 | 0.363 | 0.374 | 0.978 | 0.894 | 0.817 | 0.712 | 0.801 | 0.677 | 0.732 | 0.751 | 0.767 | 0.894
6 | CAL-12T | 0.835 | 0.873 | 0.853 | 0.877 | 0.731 | 0.34 | 0.342 | 0.373 | 0.387 | 0.294 | 1.42 | 1.13 | 1.15 | 1.04 | 1.03 | 0.804 | 0.688 | 0.629 | 0.663 | 0.636
7 | COR-L23 | 0.993 | 0.773 | 0.873 | 0.988 | 0.816 | 0.525 | 0.514 | 0.518 | 0.46 | 0.403 | 0.191 | 0.191 | 0.204 | 0.218 | 0.208 | 1.38 | 0.626 | 1.37 | 1 | 0.539
8 | COR-L 105 | 1.11 | 0.964 | 0.873 | 1.1 | 0.845 | 0.446 | 0.385 | 0.416 | 0.402 | 0.343 | 1.19 | 1.21 | 0.996 | 1.23 | 1.11 | 0.377 | 0.317 | 0.395 | 0.389 | 0.35
9 | Calu-6 | 0.872 | 0.895 | 0.966 | 0.982 | 0.983 | – | – | – | – | – | – | – | – | – | – | 1.28 | 1.03 | 1.27 | 1.08 | 1.06
10 | ChaGo-K-1 | – | – | – | – | – | 0.551 | 0.659 | 0.659 | 0.504 | 0.566 | 0.248 | 0.267 | 0.256 | 0.252 | 0.253 | – | – | – | – | –
11 | EBC-1 | 1.08 | 1.13 | 0.874 | 0.866 | 0.793 | – | – | – | – | – | – | – | – | – | – | 0.191 | 0.289 | 0.187 | 0.167 | 0.198
12 | EKVX | 1.04 | 0.972 | 0.962 | 0.865 | 0.805 | 0.523 | 0.548 | 0.466 | 0.37 | 0.46 | 0.394 | 0.404 | 0.387 | 0.36 | 0.313 | 0.2 | 0.239 | 0.199 | 0.181 | 0.216
13 | EMC-BAC-2 | 0.799 | 0.806 | 0.822 | 0.819 | 0.831 | 0.339 | 0.335 | 0.345 | 0.276 | 0.307 | 0.463 | 0.43 | 0.4 | 0.448 | 0.496 | 0.823 | 0.815 | 0.947 | 0.865 | 0.938
14 | EPLC-272H | 1.44 | 1.02 | 1.13 | 1.32 | 1.15 | 0.414 | 0.411 | 0.489 | 0.406 | 0.382 | 0.278 | 0.358 | 0.488 | 0.281 | 0.414 | 0.838 | 0.804 | 1.32 | 0.93 | 0.761
15 | H3255 | 0.955 | 0.876 | 0.819 | 0.915 | 0.944 | 0.396 | 0.393 | 0.45 | 0.383 | 0.387 | 0.573 | 0.568 | 0.536 | 0.557 | 0.525 | 0.241 | 0.253 | 0.191 | 0.233 | 0.226
16 | HARA | 1.01 | 0.933 | 0.885 | 0.791 | 0.927 | 0.295 | 0.282 | 0.313 | 0.243 | 0.255 | 0.217 | 0.237 | 0.226 | 0.236 | 0.234 | 0.709 | 0.651 | 0.819 | 0.748 | 0.828
17 | HCC-15 | 0.886 | 0.833 | 0.855 | 0.805 | 0.905 | 0.703 | 0.666 | 0.646 | 0.575 | 0.391 | 0.233 | 0.203 | 0.223 | 0.252 | 0.236 | 0.902 | 0.736 | 1 | 0.88 | 0.875
18 | HCC-44 | 0.869 | 0.632 | 0.652 | 0.625 | 0.69 | – | – | – | – | – | 0.679 | 0.704 | 0.643 | 0.594 | 0.709 | 0.91 | 0.743 | 1.1 | 0.97 | 0.939
19 | HCC-78 | 0.539 | 0.537 | 0.496 | 0.491 | 0.448 | 0.425 | 0.496 | 0.364 | 0.354 | 0.303 | 0.935 | 0.791 | 0.904 | 0.839 | 0.922 | 0.4 | 0.795 | 1.06 | 0.788 | 0.832
